Like-named read-outs stand apart in the source and are kept apart here. Where a SMILES comes first, the peptide text is derived from it. Bridges are numbered along the chain shown (N, C = ends). [ ]: non-standard residue; d: D form. Orn(iPr) = CC(C)NCCC[C@H](N)C(=O)O; Aad = N[C@@H](CCCC(=O)O)C(=O)O
Legend:
[1] = test system: non-atherosclerotic (NA) and atherosclerotic (A) rabbits; assay: Serum biomarkers of cardiac injury (ASAT, CK, cardiac troponin I); type: in vivo, New Zealand White rabbits; settings: at the end of administration of the highest infusion rate, n = 5
[2] = test system: non-atherosclerotic (NA) and atherosclerotic (A) rabbits; assay: Electrocardiogram monitoring during incremental infusion rates; type: in vivo, New Zealand White rabbits; settings: A and NA animals, NE finding at the highest rate tested (1 μg.kg^−1.min^−1)
Description: (§1) Following overnight fasting, the rabbits were pre-anesthetized intramuscularly using a mixture of 15 mg/kg ketamine hydrochloride (Imalgène 500®, Rhône Mérieux, Lyon, France) and 0.7 mg/kg xylazine hydrochloride (Rompun® 2%, KVP, Kiel, Germany). The animals were tracheotomized and maintained under isoflurane anesthesia (2% v/v isoflurane in oxygen [isoflurane: AErrane®, Baxter, Maurepas, France]). The electrocardiogram was monitored continuously (Lead II derivation) during surgery. A femoral vein was cannulated using a polyvinyl chloride catheter to administer selepressin, AVP, NE, or vehicle while a carotid artery was cannulated for blood sampling. A Millar catheter-tip transducer was introduced into the femoral artery to determine arterial pressure. The animals were infused intravenously using Ringer lactate (Lavoisier, Paris, France) at 2 mL/h.
AP and electrocardiogram signals were amplified (Hugo Sachs Elektronik, March-Hugstetten, Germany) and recorded continuously using a computerized data acquisition system (Notocord, Croissy-sur-Seine, France) with acquisition rates of 500 and 1000 Hz for arterial pressure and electrocardiogram, respectively.

[3] = healthy dogs; ref unpublished results; cited from earlier work
[4] = healthy rats; ref unpublished results; cited from earlier work
[5] = Plasma bioanalysis at the time of maximum hemodynamic effect; settings: New Zealand White, rabbit, in vivo, iv; atherosclerotic (A) rabbits; incremental i.v. infusion; LC-MS/MS for selepressin and AVP, LC with colorimetric detection for NE; mean ± standard deviation, n = 5; SD; read-out: maximum plasma concentration
Description: Blood for bioanalysis was sampled from all of the animals both before the first infusion (vehicle control) and for each infusion rate at the time of maximum hemodynamic effect. Quantification of selepressin, AVP, or NE in plasma samples was performed using validated liquid chromatography with tandem mass spectrometric detection for selepressin and AVP and validated liquid chromatography with colorimetric detection for NE. All of the animals treated with selepressin, AVP, or NE were exposed in a dose-dependent manner, with no difference between A and NA animals. The maximum selepressin plasma concentrations (mean ± standard deviation) were 329±52 and 367±48 ng/mL for A and NA animals, respectively, for AVP they were 122±27 and 100±46.2 ng/mL for A and NA, respectively, and for NE they were 301±126 and 345±164 ng/mL for A and NA, respectively.

healthy dogs = settings: cited from earlier work
[6] = test system: non-atherosclerotic (NA) and atherosclerotic (A) rabbits; assay: Hemodynamic dose-response to cumulative intravenous infusion rates in anesthetized rabbits; type: in vivo, New Zealand White rabbits; settings: incremental i.v. infusion rates, nonlinear regression, mean ± standard error of the mean
Description: Thirty male New Zealand White rabbits (2.6–3.6 kg, Centre d’élevage G. Achard de la Vente, St Mars d'Egrenne, France), aged 3–4 months were individually housed in stainless steel mesh cages (500 × 600 × 400 mm) at 19–25°C and ≥35% humidity with a 12-h light/dark cycle. Each animal received Bolapin (Huttepain Bouix, Le Mans, France) at approximately 60 g/day as standard diet (non-atherosclerotic animals) or supplemented with1% cholesterol for 6 weeks to induce atherosclerosis (both n = 15). The animals were fasted for at least 12 h before clinical laboratory blood sampling, on the day of the experiment, and before scheduled necropsy. Water was supplied ad libitum. On completion of cholesterol feeding, the animals were prepared surgically to determine cardiovascular variables and infused intravenously with selepressin, arginine vasopressin (AVP), or norepinephrine (NE) at incremental rates.
as §1
A left parasternal image window was used to obtain a long-axis view, visualizing the entire ascending aorta, the innominate artery branch, and the left common carotid arteries in the same plane. Prior to dosing, all of the animals (atherosclerotic [A] and non-atherosclerotic [NA]) were examined by 2-dimensional ultrasonography using a 15-MHz linear probe. The thoracic aorta was visualized at up to 30 frames/s using a 120-μm axial resolution. An adequate penetration depth was set to several centimeters beyond the far wall of the ascending aorta. Intima-media thickness (IMT) immediately proximal to the innominate artery branch site was determined in a consistent manner in each animal using the arterial branching points as anatomic landmarks.
Doppler ultrasonographic measurements were performed using Acuson Séquoia 526 color Doppler equipment (Siemens, Saint-Denis, France). Aortic flow measurements were performed from a trans-hepatic view for perfect alignment (cos(theta) of the Doppler equation ≈1). Time velocity integrals and aortic diameter were determined for each time point by aortic echography.
Aortic blood flow (ABF, mL/min) was calculated according to the following formula: ABF (mL/min) = SV (mL/beat)×HR (beats/min) where:
• HR: heart rate • SV (stroke volume, mL) = ITVAo (cm) × SAo (cm^2) • ITVAo: Integral time velocity of the aorta evaluated from the mean of three to five consecutive velocity waveforms (i.e., three to five heartbeats) • SAo (Section of the aorta) = (π × DAo^2)/4 • DAo: Aortic diameter (cm) determined by aortic echography close to the maximal velocity measurement site.
Before treatment, the animals (n = 5 for each drug and for A vs. NA) were infused with the corresponding vehicle (10 mM acetate buffer at 9% v/v in 0.9% NaCl for selepressin, 10 mM acetate buffer at 0.3% v/v in 0.9% NaCl for AVP, and in 0.9% NaCl for NE) at 1 mL.kg^−1.h^−1 for 15 min. Selepressin acetate, AVP, and NE were administered via the femoral vein. […]

[7] = non-atherosclerotic (NA) rabbits
[8] = atherosclerotic (A) rabbits, SEM
[9] = non-atherosclerotic (NA) rabbits, SEM

SMILES	serum aspartate aminotransferase activity vs baseline ([1]; atherosclerotic (A) rabbits)	serum aspartate aminotransferase activity vs baseline [1, 7]	electrocardiogram abnormalities (including ST segment elevation) [2]	half-life [3] [min]	half-life [4]	Cmax [5] [ng/mL]	coronary ischemic liability (healthy dogs)	Log ED50, aortic blood flow (ABF) [6, 8]	Log ED50, diastolic arterial pressure (DAP) [6, 8]	Log ED50, heart rate (HR) [6, 8]	Log ED50, mean arterial pressure (MAP) [6, 8]	Log ED50, stroke volume (SV) [6, 8]	Log ED50, systolic arterial pressure (SAP) [6, 8]	Log ED50, mean arterial pressure (MAP) [6, 7]	Log ED50, aortic blood flow (ABF) [6, 9]	Log ED50, diastolic arterial pressure (DAP) [6, 9]	Log ED50, heart rate (HR) [6, 9]	Log ED50, stroke volume (SV) [6, 9]	Log ED50, systolic arterial pressure (SAP) [6, 9]	Log ED50, mean arterial pressure (MAP) [6, 9]
CC[C@H](C)[C@@H]1NC(=O)[C@H](Cc2ccccc2)NC(=O)[C@@H](N)CSSC[C@@H](C(=O)N2CCC[C@H]2C(=O)N[C@@H](CCCNC(C)C)C(=O)NCC(N)=O)NC(=O)[C@H](CC(N)=O)NC(=O)[C@H](CCCC(N)=O)NC1=O [Selepressin, selepressin] (H-CFI[Aad](NH2)NCP[Orn(iPr)]G-NH2; disulfide 1-6)	not significantly different from baseline	not significantly different from baseline	No electrocardiogram abnormalities	~30	approximately 20 min	329 ± 52	no relevant coronary ischemic liability	–	–	–	–	–	–	–	–	–	–	–	–	–
NC(=O)CC[C@@H]1NC(=O)[C@H](Cc2ccccc2)NC(=O)[C@H](Cc2ccc(O)cc2)NC(=O)[C@@H](N)CSSC[C@@H](C(=O)N2CCC[C@H]2C(=O)N[C@@H](CCCN=C(N)N)C(=O)NCC(N)=O)NC(=O)[C@H](CC(N)=O)NC1=O [AVP, arginine vasopressin]	not significantly different from baseline	not significantly different from baseline	No electrocardiogram abnormalities	–	–	122 ± 27	–	−8.4±0.2 log(ng.kg^-1.min^-1)	−8.7±1.1 log(ng.kg^-1.min^-1)	−8.5±0.5 log(ng.kg^-1.min^-1)	−8.6±1.4 log(ng.kg^-1.min^-1)	−7.9±5.1 log(ng.kg^-1.min^-1)	−8.6±3.2 log(ng.kg^-1.min^-1)	No fit	−8.1±0.5 log(ng.kg^-1.min^-1)	−10.0±7.5 log(ng.kg^-1.min^-1)	−8.6±0.2 log(ng.kg^-1.min^-1)	−7.5±5.9 log(ng.kg^-1.min^-1)	−6.6±1.9 log(ng.kg^-1.min^-1)	–
NC[C@H](O)c1ccc(O)c(O)c1 [NE, norepinephrine]	–	–	Some premature ventricular beats	–	–	–	–	−6.2±0.7 log(ng.kg^-1.min^-1)	−5.8±0.4 log(ng.kg^-1.min^-1)	−7.0 ±1.2 log(ng.kg^-1.min^-1)	−5.7±0.3 log(ng.kg^-1.min^-1)	−5.4±0.4 log(ng.kg^-1.min^-1)	–	–	−6.5±0.4 log(ng.kg^-1.min^-1)	−6.0±0.3 log(ng.kg^-1.min^-1)	−6.9±0.9 log(ng.kg^-1.min^-1)	−6.5±0.4 log(ng.kg^-1.min^-1)	−6.1±0.2 log(ng.kg^-1.min^-1)	−6.1±0.3 log(ng.kg^-1.min^-1)
